# Laboratory results: US20060030549A1, “Paricalcitol(zemplar) capsule controls secondary hyperparathyroidism (SHPT) in CKD stage 5 patients” (priority 2003, published 2006)
# Test system: CKD stage 5 subjects on hemodialysis (HD) or peritoneal dialysis (PD)
# Test: Double-blind, placebo-controlled, multicenter studies of paricalcitol capsule in secondary hyperparathyroidism
# Format: in vivo, human
# Details: for duration of iPTH/PTH reduction: HD and PD subjects, 12-week treatment; for AE (adverse event) profile: versus placebo group
# Protocol: Paricalcitol capsule is an oral formulation of paricalcitol injection, a vitamin D analog effective in the prevention and treatment of SHPT associated with chronic renal failure. Three doubleblind, placebo-controlled, multicenter studies were conducted to evaluate the safety and efficacy of paricalcitol capsule in CKD stage 5 subjects on hemodialysis (HD) or peritoneal dialysis (PD). After a 4-8 week washout period, 225 subjects (HD: 150, PD: 75) with iPTH≧300 pg/mL, serum Ca 8.0-10.5 mg/dL and Ca×P04<65 were randomized (1:1) and treated with paricalcitol capsule or placebo 3× weekly for 12 weeks. Initial doses were based on iPTH levels at baseline (initial mcg dose=iPTH/60). Subsequent dose adjustments of 2 mcg were based on the weekly Ca, Ca×P04, and iPTH results; dose increases occurred every 2 weeks and decreases once per week.
smiles,measurement,setting,value
C[C@H](/C=C/[C@H](C)C(C)(C)O)[C@H]1CC[C@H]2/C(=C/C=C3C[C@@H](O)C[C@H](O)C3)CCC[C@]12C [paricalcitol],subjects with 2 consecutive 30 decreases in iPTH,"95/105 subjects, capsule 3x weekly for 12 weeks, initial mcg dose = iPTH/60, p<0.001 vs placebo",90%
same,duration of iPTH/PTH reduction,,sustained throughout the treatment
same,duration of iPTH/PTH reduction,listed as paricalcitol capsule,sustained reduction of PTH
same,mean iPTH reduction,"by Week 3, 3x weekly dosing",30%
same,influence of subject factors on efficacy,"demographics, disease severity, baseline P04, phosphate binder type","not influenced by demographics, disease severity, baseline P04 or types of phosphate binder usage"
same,"mean serum P04, maximum value","increased initially to the maximum, then decreased",5.7 mg/dL
same,mean Ca,throughout 12-week treatment,under 10.0 mg/dL
same,AE (adverse event) profile,,comparable between the groups
same,AE (adverse event) profile,listed as paricalcitol capsule,comparable to placebo
